pIC50: −log10 of the molar value. Positions of bridges follow the written chain, without caps; N, C: chain ends. Non-standard residues stand in square brackets, D forms with d. Residues, ends and D or L forms follow the SMILES beside them. *: point of attachment. Picolinoyl = O=C(c1ccccn1)*; Aib = CC(C)(N)C(=O)O
How the values were obtained:
[1] = tested on: TNF-α content in conditioned media of LPS-treated BV2 microglial cells; test: In vitro TNF-α inhibitory activity in LPS-treated BV2 microglial cells; type: cell-based; settings: compound 45 min before LPS, 24 h incubation, TNF-α in supernatant, read-out: IC50 for reducing LPS-induced TNF-α content by half
Description: To measure the efficacy of the biological activity of Compound 1, an in vitro assay was employed to measure TNF-α content in conditioned media of cells treated with lipopolysaccharide (LPS) and different concentrations of Compound 1. 1 mg of Compound 1 peptide compound was added to 3.333 mL of physiological saline to make a 189 μM peptide solution which is sterilized by filtration through a 0.22 μm membrane filter. For treatment of cells, threefold serial dilutions were made, yielding concentrations of 189, 63, 21, 7, 2.3, and 0.76 μM peptide solution.
BV2 cells were recovered and passaged more than 3 times. 1.2×10^6 BV2 microglial cells in good growth state and in the logarithmic growth phase were diluted to […] cells/mL with DMEM medium containing 10% FBS, and 400 μL of cell suspension was inoculated into each well of a 48-well cell culture plate. […]

[2] = tested on: TNF-α content in the blood of LPS-treated ICR mice; test: In vivo TNF-α inhibitory activity in LPS-treated mice; settings: ICR male mice, IV compound 30 min before IV LPS 5 μg/kg, blood collected 1.5 hours after LPS
Description: To measure the efficacy of the biological activity of Compound 1, an in vivo assay was employed to measure TNF-α content in the blood of whole mice treated with lipopolysaccharide (LPS) and different concentrations of Compound 1. 56 ICR male mice, 12-14 g, were acclimated to the animal facility for 7 days and were then randomized into 8 groups with 7 mice/group to receive doses of 0, 0.001, 0.003, 0.01, 0.03, 0.1, 0.3, and 1.0 mg/kg of compound. Each dose group received intravenous (IV) injection of different concentrations of Compound 1 peptide solution at a dosing volume of 10 mL/kg. 30 min later, IV LPS at a dose of 5 μg/kg and at a volume of 10 ml/kg was administered. 1.5 hours after administration of LPS, whole blood was collected from the orbit of ICR mice, centrifuged at 4000 rpm for 10 min, and the supernatant was collected and used for TNF-α content detection from each of the different Compound 1 doses. (TNF-α detection kit, Unitech biological item number: 70-EK282/3-96).

pIC50 [1]: ~5.99
Structure (SMILES): CC(C)CC1NC(=O)C(CC(C)C)NC(=O)C(CCCNC(=N)N)NC(=O)C(CCCCN)NC(=O)C(C)(C)NC(=O)C(CC(C)C)NC(=O)C(CCCCN)NC(=O)C(CCCNC(=N)N)NC(=O)C(CC(C)C)NC(=O)C(NC(=O)C(CO)NC(=O)C(C)NC(=O)c2ccccn2)CSSCC(C(N)=O)NC1=O (stereo not drawn) [Compound 1, picolinyl-Ala-Ser-cyclo[Cys-LRKL-Aib-KRLL-Cys]-NH2] (Picolinoyl-ASCLRKL[Aib]KRLLC-NH2; disulfide 3-13; configuration not given here)
ED50 (Effective Dose at which a 50% reduction in blood TNF-α content was found) [2]: 0.045 mg/kg
